The values that follow come from patent US20050250765A1, “Diazepinones as antiviral agents” (priority 2000, published 2005).

One series deals with Vero cells.
Assay: not given
Conditions: read-out: TC50; 2-day XTT, no virus.
Take “5-(3-Methoxy-benzyl)-3-nitro-5,6,7,8-tetrahydro-10-thia-5,8-diaza-benz[a]azulen-9-one [W]”: the CC50 was 100 µM.

Tested on in another series: not listed separately
As to the kind of experiment: Metabolic stability, in vitro half-life in human liver microsomes. Format: in vitro ADME. Conditions: liver microsomes (pooled), 30 μM compound, 0.5 mg/mL pooled microsomal protein, 1.0 mM NADPH, 37° C., pH 7.4, read-out: t½ (min) Human Liver Microsome Preparation. How it is done:
Compounds were individually incubated (30 μM, dissolved in DMSO) with human and mouse liver microsomes. The incubation consisted of 50 mM KPO4, pH 7.4 buffer with 0.5 mg/mL pooled microsomal protein, 30 μM compound, and 1.0 mM NADPH. The total incubate volume was 0.5 mL. The incubate solution was pro-incubated for 3 minutes at 37° C. and the reaction initiated by the addition of NADPH. At 0, 10, 20, and 40 minutes 50 μL aliquots were removed and quenched with 100 μL acetonitrile and 25 μL of internal standard. Standard curves of each compound were prepared in a simialr manner at a concentration range of 7.5 μM to 45 μM. Th in vitro metabolic half-life determinations of these preparations were determined from the concentration vs. time plots using WinNonlin software. The in vitro half-life data represents the extent of oxidative and hydrolytic metabolism.
`O=C1NCCNc2c1ccc1cnccc21` [F, 8,9,10,11-Tetrahydro-3,8,11-triaza-cyclohepta[a]naphthalen-7-one]: the half-life at 30 μM was more than 200 min.

For the molecule `COc1ccc(CN2CC(C)(C)NC(=O)c3sc4ccc(OC)cc4c32)cc1` [K, 3-Methoxy-5-(4-methoxy-benzyl)-7,7-dimethyl-5,6,7,8-tetrahydro-10-thia-5,8-diaza-benzo[a]azulen-9-one], the half-life at 30 μM was found to be 150 min.

As to `COc1ccc2sc3c(c2c1)NCCNC3=O` [B, 3-Methoxy-5,6,7,8-tetrahydro-10-thia-5,8-diaza-benzo[a]azulen-9-one], the half-life at 30 μM amounted to 66 min.

`COc1cccc(CN2CCNC(=O)c3ccc4cnccc4c32)c1` [FF4, 11-(3-Methoxy-benzyl)-8,9,10,11-tetrahydro-3,8,11-triaza-cyclohepta[a]naphthalen-7-one]: the half-life at 30 μM was more than 200 min.

As for `CCOc1ccc2sc3c(c2c1)NCC(C)(C)NC3=O` [NN, 3-Ethoxy-7,7-dimethyl-5,6,7,8-tetrahydro-10-thia-5,8-diaza-benzo[a]azulen-9-one], the half-life at 30 μM worked out at 133 min.

Regarding `CCN1CCNC(=O)c2oc3ccc(OC)cc3c21` [H, 5-Ethyl-3-methoxy-5,6,7,8-tetrahydro-10-oxa-5,8-diaza-benzo[a]azulen-9-one], the half-life at 30 μM came out at 200 min.

In the next series the test system is Vero cells.
Assay: not given
The settings on record: African green monkey, 2 day.
`COc1cccc(CN2CC(C)NC(=O)c3sc4ccc(OC)cc4c32)c1` (centres unmarked) [O, 3-Methoxy-5-(3-methoxy-benzyl)-7-methyl-5,6,7,8-tetrahydro-10-thia-5,8-diaza-benzo[a]azulen-9-one]: the CC50 turned out to be 18 µM.

In the case of `COc1cccc(CN2CC(C)NC(=O)c3sc4ccc(OC)cc4c32)c1` (centres unmarked) [EE2, 3-Methoxy-5-(3-methoxy-benzyl)-7-methyl-5,6,7,8-tetrahydro-10-thia-5,8-diaza-benzo[a]azulen-9-one], the CC50 stood at 3.4 µM.

Tested on in the next series: not listed separately
As to the kind of experiment: in vitro. The settings on record: African green monkey, TC50.
The molecule `O=C1NCCNc2c1ccc1cnccc21` [F, 8,9,10,11-Tetrahydro-3,8,11-triaza-cyclohepta[a]naphthalen-7-one] yielded a CC50 at 2 day of 1.7 µM.

In turn, `COc1cccc(CN2CCNC(=O)c3sc4ccc([N+](=O)[O-])cc4c32)c1` [V, 5-(3-Methoxy-benzyl)-3-nitro-5,6,7,8-tetrahydro-10-thia-5,8-diaza-benz[a]azulen-9-one] displayed a CC50 at 2 day of 1.3 µM.

`C=CCN1CCNC(=O)c2sc3ccc([N+](=O)[O-])cc3c21` [U, 5-Allyl-3-nitro-5,6,7,8-tetrahydro-10-thia-5,8-diaza-benz[a]azulen-9-one] returned a CC50 at 2 day of 8.1 µM.

Molecule `C=C(C)CN1CCNC(=O)c2sc3ccc([N+](=O)[O-])cc3c21` [Q, 5-(2-Methyl-allyl)-3-nitro-5,6,7,8-tetrahydro-10-thia-5,8-diaza-benz[a]azulen-9-one] had a CC50 at 2 day of 6 µM.

Molecule `COc1cccc(CN2CCNC(=O)c3sc4ccc(OC)cc4c32)c1` [C, 3-Methoxy-5-(3-methoxy-benzyl)-5,6,7,8-tetrahydro-10-thia-5,8-diaza-benzo[a]azulen-9-one] showed a CC50 at 2 day of 10 µM.

Molecule `CCCCN1CCNC(=O)c2sc3ccc([N+](=O)[O-])cc3c21` [DD, 5-n-Butyl-3-nitro-5,6,7,8-tetrahydro-10-thia-5,8-diaza-benz[a]azulen-9-one] had a CC50 at 2 day of 12.9 µM.

Take `COc1ccc2oc3c(c2c1)N(CCC(C)C)CCNC3=O` [YY5, 3-Methoxy-5-(3-methyl-butyl)-5,6,7,8-tetrahydro-10-oxa-5,8-diaza-benzo[a]azulen-9-one]: the CC50 at 2 day stood at 10 µM.

For the molecule `C=C(Cl)CN1CCNC(=O)c2sc3ccc(OC)cc3c21` [MM3, 5-(2-Chloro-allyl)-3-methoxy-5,6,7,8-tetrahydro-10-thia-5,8-diaza-benzo[a]azulen-9-one], the CC50 at 2 day amounted to 3 µM.

Consider `COc1ccc2sc3c(c2c1)N(Cc1ccccc1C)CCNC3=O` [WW3, 3-Methoxy-5-(2-methyl-benzyl)-5,6,7,8-tetrahydro-10-thia-5,8-diaza-benzo[a]azulen-9-one], for which the CC50 at 2 day amounted to 10.2 µM.

`C=C(C)CN1CCNC(=O)c2sc3ccc(F)cc3c21` [CC5, 3-Fluoro-5-(2-methyl-allyl)-5,6,7,8-tetrahydro-10-thia-5,8-diaza-benz[a]azulen-9-one]: the CC50 at 2 day was found to be 18.5 µM.

As to `CCCN1CC(C)(C)NC(=O)c2sc3ccc(OC)cc3c21` [TT, 3-Methoxy-7,7-dimethyl-5-propyl-5,6,7,8-tetrahydro-10-thia-5,8-diaza-benzo[a]azulen-9-one], the CC50 at 2 day was determined as 0.4 µM.

With `COc1ccc2sc3c(c2c1)NC(Cc1ccccc1)CNC3=O` (centres unmarked) [PP2, 6-Benzyl-3-methoxy-5,6,7,8-tetrahydro-10-thia-5,8-diaza-benzo[a]azulen-9-one], the CC50 at 2 day stood at 1.1 µM.

Molecule `COc1ccc2sc3c(c2c1)NCCNC3=O` [B, 3-Methoxy-5,6,7,8-tetrahydro-10-thia-5,8-diaza-benzo[a]azulen-9-one] displayed a CC50 at 2 day of 4.5 µM.

Turning to `CN1CCNC(=O)c2ccc3cnccc3c21` [GG4, 11-Methyl-8,9,10,11-tetrahydro-3,8,11-triaza-cyclohepta[a]naphthalen-7-one], the CC50 at 2 day came out at 11.5 µM.

`COc1ccc2sc3c(c2c1)N(Cc1ccc([N+](=O)[O-])cc1)CCNC3=O` [SS3, 3-Methoxy-5-(4-nitro-benzyl)-5,6,7,8-tetrahydro-10-thia-5,8-diaza-benzo[a]azulen-9-one] returned a CC50 at 2 day of 83 µM.

Molecule `COc1ccc2sc3c(c2c1)N(Cc1ccc(C#N)cc1)CCN(C)C3=O` [AA4, 4-(3-Methoxy-8-methyl-9-oxo-6,7,8,9-tetrahydro-10-thia-5,8-diaza-benzo[a]azulen-5-ylmethyl)-benzonitrile] came in with a CC50 at 2 day of 100 µM.

Regarding `CCCN1CCNC(=O)c2sc3ccc(OCC)cc3c21` [D, 3-Ethoxy-5-propyl-5,6,7,8-tetrahydro-10-thia-5,8-diaza-benzo[a]azulen-9-one], the CC50 at 2 day came out at 100 µM.
